# Experimental data taken from publication PMC5812233, “A novel CAV derived cell-penetrating peptide efficiently delivers exogenous molecules through caveolae-mediated endocytosis” (Veterinary Research, 2018).
# Entries after “also recorded” stand apart in the source; their conditions may differ. No end group written: not given here. *: point of attachment. FITC = O=C1OC2(c3ccc(O)cc3Oc3cc(O)ccc32)c2ccc(NC(=S)*)cc21
# Columns and labels:
# HCT116 cells [1] = experiment: Flow cytometry of cellular uptake of FITC-labeled peptides; format: cell-based; settings: for mean percent of relative internalization: 10 000 events, three experiments in triplicate (Figure 3D)
# Experimental: The comparison of cell-penetrating efficiency of peptides in HCT116 cells was tested by incubating the cells with CVP1 or TAT peptides. […] The cells were washed twice by centrifugation and finally resuspended in 400 µL PBS for assaying of cellular fluorescent intensity by flow cytometry (BD FACSAria SORP, Becton–Dickinson, USA). A total of 10 000 events were recorded. Data was obtained and analyzed using Flowjo software.
# 293T cells = settings: 5 µM FITC-labeled peptide, 30 min, 37 °C, serum-free medium, confocal microscopy
# Experimental: (§1) 293T cells, HCT-116 cells, 3T3 cells, MDCK cells and MSB1 cells were maintained in our laboratory and were grown in Dulbecco’s modified Eagle’s medium supplemented with 10% heated-inactivated fetal bovine serum (FBS) and 1% penicillin–streptomycin solution at 37 °C and 5% CO2.
# (§2) Firstly, 2.0 × 10^5 of 293T cells, HCT-116 cells, 3T3 cells or MDCK cells were seeded onto glass cover slides in 24-well plates and cultured for 12 h. The cells were then washed with phosphate buffered saline (PBS) and incubated with 5 µM of FITC-labeled CVP1, TAT and Mut-CVP1 peptides in 500 µL serum-free medium for 30 min. The concentration-dependent intake of CVP1 peptide in HCT-116 cells was then evaluated. In brief, after incubation of cells with FITC-CVP1 peptide for 30 min, cells were washed for three times and stained with Hoechst 33342 (5 µg/mL) for 10 min. Finally, cells were washed three times with PBS and imaged using confocal laser scanning microscope (Leica, TCS SP8 STED and Germany) at 60× magnification.
# 3T3 cells = settings: 5 µM FITC-labeled peptide, 30 min, 37 °C, serum-free medium, confocal microscopy
# Experimental: as §1, §2
# HCT116 cells [2] = settings: 5 µM FITC-labeled peptide, 30 min, 37 °C, serum-free medium, confocal microscopy
# Experimental: as §1, §2
# MDCK cells = settings: 5 µM FITC-labeled peptide, 30 min, 37 °C, serum-free medium, confocal microscopy
# Experimental: as §1, §2
# HCT116 cells [3] = settings: up to 40 µM (5, 10, 20, 40 µM), 12, 24 and 48 h (Figure 3C)
# Experimental: Effect of CVP1 on the viability of cells was evaluated by MTT assay as described previously.
# HCT116 cells [4] = experiment: β-galactosidase delivery, X-gal staining; format: cell-based; settings: 20 µM peptide non-covalently complexed with 1 µg β-galactosidase, 1 h + 90 min at 37 °C, phase-contrast microscopy
# Experimental: Protein delivery ability of CVP1 was assessed using β-galactosidase enzyme as previously described. In brief, CVP1 and Mut-CVP1 at a concentration of 20 µM were non-covalently complexed with β-galactosidase (1 µL, 1 µg/µL) enzyme respectively. The mixtures were incubated for 30 min at room temperature (RT) for complex formation. The peptide-enzyme complex was added to the HCT116 cells with Opti-MEM media (100 µL) and the cells were incubated for 1 h at 37 °C. After incubation, complete media (150 µL) was added to the cells, and further incubated for 90 min at 37 °C. The cells were washed thoroughly with PBS to remove extracellular peptide-enzyme complex and fixed in PBS containing 1% formaldehyde and 0.2% glutaraldehyde for 15 min at RT. The cells were washed subsequently three times with PBS and stained with X-gal staining buffer (40 mM potassium ferricyanide, 40 mM potassium ferrocyanide, 20 mM magnesium chloride, 2 mg/mL of X-gal in PBS) for 90 min at 37 °C. Finally, the cells were analyzed under a phase-contrast microscope (Olympus) at 200× magnification and imaged.
# pCDNA3.1-RFP plasmid = experiment: Agarose gel retardation (gel-shift) assay of peptide-plasmid complex; format: binding; settings: 5 µM peptide, 200 ng plasmid DNA, 37 °C 45 min, ethidium bromide
# Experimental: (§3) The linking of DNA with CVP1 was made by the charge interaction. To confirm the formation of the peptide and plasmid complexes, the CVP1 peptide (5 μM) and plasmid DNA (200 ng) were diluted in 10 µL Opti-MEM and co-incubated at 37 °C for 45 min, and then agarose gel retardation assay was performed as described previously. The transfection experiment was conducted to test the transfection efficiency of CVP1-DNA on HCT116 cells as described previously. Briefly, 1 μg of plasmid DNA and 40 µM of CVP1 peptide or TAT peptide were diluted in 50 µL Opti-MEM, respectively and incubated at RT for 30 min. The lipofectamine 2000 (Invitrogen, USA) was used as a positive control, following the manual provided by the manufacture. […] Meanwhile, the fluorescence intensity was measured by Flow cytometry as described previously.
# HCT116 cells [5] = experiment: Plasmid (pCDNA3.1-RFP) transfection, fluorescence microscopy and flow cytometry; format: cell-based; settings: 40 µM peptide, 1 µg plasmid DNA; for RFP fluorescence of cells treated with peptide-pCDNA3.1-RFP complex: 48 h post-transfection, fluorescence microscope
# Experimental: as §3
# poly (I:C) = experiment: Gel retardation electrophoresis of peptide-poly (I:C) complex; format: binding; settings: 10 µM peptide, 5 µg poly (I:C), 45 min 37 °C
# HD11 cells = experiment: Poly (I:C) delivery, IFN-β mRNA by real-time PCR; format: cell-based; settings: 10 µM peptide, 5 µg poly (I:C), 6 h
# Experimental: To analyze the ability of CVP1 to delivery poly(I;C), the CVP1 (10 µM) was first mixed with the poly (I:C) (5 µg) for 45 min at 37 °C for generating the complex. And then, the HD11 cells were incubated with peptide-poly (I:C) complexes, peptide (10 µM) only or poly (I:C) (5 µg) with transfecting reagent. After 6 h of incubation, the cells were collected and total RNA extracted using total RNA purification kit (Axygen, USA). 1 µg of RNA was reverse transcribed into cDNA with a reverse transcription reagent kit (Takara, Japan). The relative mRNA level of IFN-β was detected by Real-time PCR.
# HCT116 cells [6] = experiment: Cell internalization pathway: endocytosis inhibitors and temperature, flow cytometry; format: cell-based
# Experimental: The mechanism of uptake of CVP1 in HCT116 cells was investigated by means of physical and chemical inhibition of endocytosis. Incubation of peptide and cells at 37 or 4 °C were treated to measure the influence of temperature on peptide internalization (used as a physical means of inhibition of endocytosis). HCT116 cells cultured in 12-well plates were pretreated for 30 min with inhibitors: 30 µM chlorpromazine (a clathrin-mediated endocytosis inhibitor, which prevents the assembly of clathrin-coated pits at the inner surface of the cell membrane), 5 mM methylated-β-cyclodextrin (a caveolae-mediated endocytosis inhibitor, a cholesterol depletion agent), 10 µM 5-(N-ethyl-N-isopropyl) amilorid (a macropinocytosis inhibitor, which selectively blocks the Na^+/H^+ antiporter) and 50 µM LY294002 (a macropinocytosis inhibitor, a strong phosphatidylinositol-3 kinase inhibitor) as previously described. The cells were further incubated with the peptide for 50 min and then analyzed by flow cytometry. To investigate the effect of incubation time, the HCT116 cells were incubated with CVP1 at 37 °C for different time periods.
# furin = settings: motif (RKKR and RQRR) in the TAT sequence; cited from earlier work
# Excerpt: Generally, CPPs are composed of 5–30 amino acids (aa) with enriched lysine or arginine residues, and divided into three classes including amphipathic CPP, cationic CPP and hydrophobic CPP [2, 3]. […] As the pioneer of CPPs, HIV-TAT with 86 amino acids plays vital roles in the replication of HIV. It wa ...
# [7] = HCT116 cells, 0.1 µM FITC-labeled peptide, flow cytometry after trypsin 5 min to remove non-internalized peptide
# [8] = HCT116 cells, 1 µM FITC-labeled peptide, flow cytometry after trypsin 5 min
# [9] = HCT116 cells, 2 µM FITC-labeled peptide, flow cytometry after trypsin 5 min
# [10] = HCT116 cells, 5 µM FITC-labeled peptide, flow cytometry after trypsin 5 min
# [11] = HCT116 cells, 10 µM FITC-labeled peptide, flow cytometry after trypsin 5 min
substance,measurement,setting,value
"{FITC}-MARRARRPRGRFYAFRRGR [CVP1, N terminus (aa 1–19) of VP1 from chicken anemia virus, FITC-labeled cell-penetrating peptide]",mean percent of relative internalization,HCT116 cells [1]; [7],0.1%
same,mean percent of relative internalization,HCT116 cells [1]; [8],2.1%
same,mean percent of relative internalization,HCT116 cells [1]; [9],18.7%
same,mean percent of relative internalization,HCT116 cells [1]; [10],86%
same,intensity of fluorescence in cells versus incubation time,"HCT116 cells [1]; HCT116 cells, 5 µM peptide, 5, 10, 15, 20, 25, 30 min, flow cytometry (Figure 3B)",increased as the incubation time was increased from 5 to 30 min
same,mean percent of relative internalization,HCT116 cells [1]; [11],98%
same,cell-penetrating efficiency versus concentration,"HCT116 cells [1]; HCT116 cells, 1, 2, 5, 10, 20, 40 µM, 30 min, 37 °C, flow cytometry (Figure 3A)",dose-dependent
same,specific green fluorescence dots in cells (internalization),293T cells,clearly observed
same,specific green fluorescence dots in cells (internalization),3T3 cells,clearly observed
same,specific green fluorescence dots in cells (internalization),HCT116 cells [2],clearly observed
same,specific green fluorescence dots in cells (internalization),MDCK cells,clearly observed
same,"toxicity to cells (cell viability, MTT)",HCT116 cells [3],non-toxic
same,X-gal staining of cells treated with peptide-β-galactosidase complex,HCT116 cells [4],strong blue color
same,migration of plasmid conjugated with peptide (DNA binding capacity),pCDNA3.1-RFP plasmid,much lower migration speed than naked plasmid
same,"efficacy of delivering plasmid, comparison with other carriers","HCT116 cells [5]; 48 h, flow cytometry, comparators TAT peptide, lipofectamine 2000",significantly higher signal of fluorescence than the TAT/RFP sample; also recorded: not as equal as commercial transfection reagents
same,RFP fluorescence of cells treated with peptide-pCDNA3.1-RFP complex,HCT116 cells [5],strong fluorescence
same,complex formation with poly (I:C),poly (I:C),could conjugate with the poly (I:C) to form a complex
same,"capacity of delivering poly (I:C), comparison with other carriers","HD11 cells; IFN-β mRNA by real-time PCR, comparators TAT, transfection reagent",higher than the TAT; also recorded: not as equal as commercial transfection reagents
same,IFN-β mRNA expression of cells treated with peptide/poly (I:C) complexes versus naked peptide or poly (I:C) only,HD11 cells; real-time PCR,significantly increased
same,effect of EIPA on cellular intake of the peptide,"HCT116 cells [6]; HCT116 cells pretreated 30 min with 10 µM 5-(N-ethyl-N-isopropyl) amiloride (macropinocytosis inhibitor), then peptide 50 min",unable to inhibit
same,effect of CPZ on cellular intake of the peptide,"HCT116 cells [6]; HCT116 cells pretreated 30 min with 30 µM chlorpromazine (clathrin-mediated endocytosis inhibitor), then peptide 50 min",unable to inhibit
same,effect of LY294002 on cellular intake of the peptide,"HCT116 cells [6]; HCT116 cells pretreated 30 min with 50 µM LY294002 (macropinocytosis inhibitor), then peptide 50 min",only slightly blocked
same,effect of MβCD on cellular intake of the peptide,"HCT116 cells [6]; HCT116 cells pretreated 30 min with 5 mM methylated-β-cyclodextrin (caveolae-mediated endocytosis inhibitor), then peptide 50 min",significantly reduced
same,cell-penetrating activity at 4 °C,"HCT116 cells [6]; HCT116 cells, 10 µM peptide, 4 °C compared with 37 °C",efficiently inhibited
"FITC-YGRKKRRQRRR [TAT, reference compound]",mean percent of relative internalization,HCT116 cells [1]; [7],0.1%
same,mean percent of relative internalization,HCT116 cells [1]; [8],0.4%
same,mean percent of relative internalization,HCT116 cells [1]; [9],1.7%
same,mean percent of relative internalization,HCT116 cells [1]; [10],25%
same,mean percent of relative internalization,HCT116 cells [1]; [11],61%
same,stability toward furin,furin,cleaved by furin
{FITC}-MAAGAGAPAGAFYAFGAGA [Mut-CVP1],cell-penetrating activity (overall),"HCT116 cells [1]; HCT116 cells, FITC-labeled peptide, confocal imaging and flow cytometry",did not show any cell-penetrating activity
same,specific green fluorescence dots in cells (internalization),HCT116 cells [2],not
same,X-gal staining of cells treated with peptide-β-galactosidase complex,HCT116 cells [4],very weak blue background
same,RFP fluorescence of cells treated with peptide-pCDNA3.1-RFP complex,HCT116 cells [5],no fluorescence
